Experimental findings from patent publication US12319696B2, “2,6-dimethyl-n-((pyridin-4-yl)methyl)imidazo[1,2-b]pyridazin-8-amine and 2,5-dimethyl-n-[(pyridin-4-yl)methyl]pyrazolo[1,5-a]pyrimidin-7-amine derivatives for treating viral infections” (CUROVIR AB, priority 2018, dated 2025) are described below.

The subject of series [1] is enterovirus strain 71. In words: Antiviral CPE inhibition assay in mammalian cell culture, EV71. The format is cell-based. The note with it: inhibition of viral CPE; for inhibition at 0.01 µM: 10 nM, read-out: Inh. at 10 nM, EV71; for inhibition at 0.1 µM: 100 nM, read-out: Inh. at 100 nM, EV71.
The test system of series [2] is coxsackie B virus strain 2. In words: Antiviral CPE inhibition assay in mammalian cell culture, Cox B2. The format is cell-based. The note with it: for inhibition at 0.01 µM: read-out: Inh. at 10 nM, Cox B2; for inhibition at 0.1 µM: read-out: Inh. at 100 nM, Cox B2.
The target in series [3] is T1, CYP3A4 (Homo sapiens, UniProt P08684).
T1 construct: from tissue; host or cells: human liver microsomes
In words: In vitro CYP 3A4 enzyme inhibition in human liver microsomes by probe substrate method. The format is in vitro ADME. The following applies: human liver microsomes 0.5 mg/mL; probe substrate Midazolam 5 μM. Here is the method:
In Vitro CYP 3A4 Enzyme Inhibition Study in Human Liver Microsomes by Probe Substrate Method
In vitro CYP3A4 enzyme inhibition assay was performed using Human liver microsomes at 0.5 mg/mL concentration. Ketoconazole was used as reference inhibitor and Midazolam was used as selective probe substrate for CYP 3A4 enzyme. Serial dilution of test/control items was prepared in potassium phosphate buffer (50 mM, pH 7.40) to obtain eight concentrations each in a 1:4 dilution pattern. The percentage of acetonitrile/DMSO was maintained at 2.5%/0.25% in 2.5× serially diluted control/test item solutions respectively. The final percentage of acetonitrile/DMSO was 1%/0.1% respectively. Intermediate solutions such as 10× working solution (5 mg/mL) of Human liver microsomal solution, 10× concentration of reference probe substrates in buffer, 5× concentrations of Cofactors (5.0 mM NADP+, 25.0 mM G-6-P, 3.0 IU/mL G-6-PDH and 10.0 mM MgCl2) were prepared in potassium phosphate buffer. The final concentration of liver microsomes in the reaction mixture was 0.5 mg/mL, cofactors was 1.0 mM NADP+, 5.0 mM G-6-P, 0.6 IU/mL G-6-PDH and 2.0 mM MgCl2. Midazolam was tested at 5 μM test concentration. 40 μL of 2.5× serially diluted test/control item solutions and 10 μL of […] liver microsomal solution were added to 96 well plate and incubated for 10 min at 37° C. with shaking condition (400 rpm) using Thermomixer. After pre incubation, 20 μL of potassium phosphate buffer, 10 μL of respective probe substrate working solution and 20 μL of cofactor mix was added.
(In general: Liver microsomes are vesicles of endoplasmic reticulum, rich in cytochrome P450 enzymes.)

The test system of series [4] is enterovirus strain 30. In words: Antiviral CPE inhibition assay in mammalian cell culture, EV30. The format is cell-based. The following applies: inhibition of viral CPE; for inhibition at 0.01 µM: 10 nM, read-out: Inh. at 10 nM, EV30; for inhibition at 0.1 µM: 100 nM, read-out: Inh. at 100 nM, EV30.
Series [5] has as its system coxsackie B virus strain 5. In words: Antiviral CPE inhibition assay in mammalian cell culture, Cox B5. It is filed as cell-based. The note with it: for inhibition at 0.01 µM: read-out: Inh. at 10 nM, Cox B5; for inhibition at 0.1 µM: read-out: Inh. at 100 nM, Cox B5.
The test system of series [6] is enterovirus strain 6. In words: microbe, parasite or virus in culture. The format is cell-based. The note with it: inhibition of viral CPE; for inhibition at 0.01 µM: 10 nM, read-out: Inh. at 10 nM, EV6; for inhibition at 0.1 µM: 100 nM, read-out: Inh. at 100 nM, EV6.
Series [7] deals with coxsackie B virus strain 3. The series is described as follows: Antiviral CPE inhibition assay in mammalian cell culture, Cox B3. The format is cell-based. The following applies: for inhibition at 0.01 µM: read-out: Inh. at 10 nM, Cox B3; for inhibition at 0.1 µM: read-out: Inh. at 100 nM, Cox B3.
In series [8] the test system is polio virus strain 1. In words: organism not typed. It is filed as cell-based. The following applies: for inhibition at 0.01 µM: read-out: Inh. at 10 nM, Polio 1; for inhibition at 0.1 µM: read-out: Inh. at 100 nM, Polio 1.
For series [9], the system named is enterovirus D68. The series is described as follows: Antiviral CPE inhibition assay in mammalian cell culture, EV-D68. It is filed as cell-based. The following applies: Enterovirus D, EVD68, inhibition of viral CPE; for inhibition at 0.01 µM: 10 nM, read-out: Inh. at 10 nM, EV-D68; for inhibition at 0.1 µM: 100 nM, read-out: Inh. at 100 nM, EV-D68.
In series [10] the test system is coxsackie B virus strain 1. The series is described as follows: Antiviral CPE inhibition assay in mammalian cell culture, Cox B1. The format is cell-based. The following applies: for inhibition at 0.01 µM: read-out: Inh. at 10 nM, Cox B1; for inhibition at 0.1 µM: read-out: Inh. at 100 nM, Cox B1.
A short description of series [11]: Metabolic stability in human liver microsomes. It is filed as in vitro ADME. The following applies: 5 μM test item, 0.25 mg/mL microsomal protein. As for the experimental part:
(§1) Metabolic stability assay was carried out using Human/Rat liver microsomes. […] Test item/Control items were incubated with Human/Rat liver microsomes with cofactors and without cofactors. The reaction mixture (100 μL) was removed at specified time period and the reaction was stopped by addition of stop solution. The samples were extracted in presence of internal standard and were analyzed using LC-MS/MS. The percent of the test/Control item remaining after specified incubation period was calculated with respect to the peak area ratio at time 0 min. […] The reaction mixture was incubated further at 37° C. for specified incubation time points (With Cofactors: 0, 15, 30, 60 and 120 min; Without Cofactors: 0 and 120 min). 100 μL incubation samples of test items and Control items at specified incubation time points were transferred to respective tubes for sample extraction. Test and Control item specimens were extracted by Protein precipitation method. A 100 μL incubation sample at each time point was added to tubes containing 200 μL of ice-cold acetonitrile and 50 μL Haloperidol solution (0.5 μg/mL). Then the tubes were vortex mixed thoroughly and centrifuged at 10000 rpm for 10 minutes at 4° C. A clear supernatant of 200 μL of samples were submitted for LC-MS/MS analysis.

The nature of series [12]: Human plasma protein binding (Rapid Equilibrium Dialysis). The note with it: pH 7.4, RED device, 37° C. The format is in vitro ADME. As for the experimental part:
(§2) Plasma protein binding study was performed using a Rapid Equilibrium Dialysis (RED) device containing dialysis membrane with a molecular weight cut-off of 8,000 Daltons. Each dialysis insert contained two chambers. The red chamber was for the plasma while the white chamber was for the buffer. Test items and Control items (Warfarin and Propranolol) were prepared at a required test concentration of 10 μM in Human/Rat plasma (pH adjusted to 7.40) using 10 mM DMSO stocks (final DMSO concentration was 0.1%). 300 μL of plasma sample was added into the sample chamber. 500 μL of buffer was added into the buffer chamber. After sealing the RED device with an adhesive film, incubation was done at 37° C. with shaking at 300 rpm for 4 h. Following incubation, an aliquot of 50 μL was removed from each well (plasma and buffer side) and diluted with equal volume of opposite matrix to nullify the matrix effect and subjected for sample extraction.
(§3) All samples were extracted by Protein Precipitation method by adding 200 μL of ice cold Acetonitrile and 50 μL of internal standard (Haloperidol at 0.1 μg/mL) solution. The tubes were vortex mixed thoroughly and centrifuged at 10000 rpm, 4° C. for 10 minutes. A clear supernatant of 200 μL of samples were submitted for LC-MS/MS analysis.

The nature of series [13]: Metabolic stability in rat liver microsomes. The format is in vitro ADME. The following applies: 5 μM test item, 0.25 mg/mL microsomal protein. As for the experimental part:
as §1

Series [14] can be described thus: Rat plasma protein binding (Rapid Equilibrium Dialysis). The format is in vitro ADME. The following applies: pH 7.4, RED device, 37° C. As for the experimental part:
as §2, §3
(Equilibrium dialysis compares concentrations on both sides of a semipermeable membrane.)

Bounds are passed on as bounds.

T1 sequence (P08684 whole entry): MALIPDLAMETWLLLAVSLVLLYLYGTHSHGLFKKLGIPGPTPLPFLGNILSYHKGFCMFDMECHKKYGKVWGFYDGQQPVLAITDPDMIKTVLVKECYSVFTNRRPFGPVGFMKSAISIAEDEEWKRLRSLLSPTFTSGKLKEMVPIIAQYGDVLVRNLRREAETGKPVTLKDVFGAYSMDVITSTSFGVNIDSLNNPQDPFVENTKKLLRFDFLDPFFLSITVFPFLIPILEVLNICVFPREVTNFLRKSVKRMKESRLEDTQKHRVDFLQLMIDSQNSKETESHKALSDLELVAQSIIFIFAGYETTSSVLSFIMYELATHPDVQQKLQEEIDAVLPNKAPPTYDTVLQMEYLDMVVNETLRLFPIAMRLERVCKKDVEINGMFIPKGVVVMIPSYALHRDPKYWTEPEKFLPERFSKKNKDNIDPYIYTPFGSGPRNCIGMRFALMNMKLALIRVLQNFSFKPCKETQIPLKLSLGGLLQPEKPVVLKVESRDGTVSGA

A word on the IC50: it is the concentration that gives 50% inhibition. Read a low IC50 as higher potency. On to `COc1ccc(-c2c(C)nc3c(NCc4ccnc(C)c4)cc(C)nn23)cc1OC` [Ex. 1, 3-(3,4-dimethoxyphenyl)-2,6-dimethyl-N-((2-methylpyridin-4-yl)methyl)imidazo[1,2-b]pyridazin-8-amine], for which the inhibition at 0.01 µM was 68% in [1]; 100% in [2]; 100% in series [4]; 80% in [5]; 100% in series [6]; 100% in [7]. Further, the inhibition at 0.01 µM in series [8] stood at 100%; in series [9], 85%; in series [10] it was 93%. In addition, the inhibition at 0.1 µM in [1] stood at 77%; in [2] it was 100%; in series [4] it was 100%; in series [5], 100%; in series [6], 100%; in [7] it was 100%. In addition, the inhibition at 0.1 µM in series [8] came to 100%; in [9], 83%; in series [10], 100%. This compound also had an IC50 in series [3] of 23.1 µM.

In general, fraction unbound refers to free concentration divided by total concentration. Higher therefore signals weak binding. As for `Cc1cc(NCc2ccnc(F)c2)n2nc(C)c(-c3ccc4c(c3)c(C)nn4C)c2n1` [Ex. 3, 3-(1,3-dimethyl-1H-indazol-5-yl)-2,5-dimethyl-N-[(2-fluoropyridin-4-yl)methyl]pyrazolo[1,5-a]pyrimidin-7-amine], in series [11], the “% remaining after incubation for 60 min, Human microsomes” value was 96.1%. Further, the results for the fraction unbound at 4 h, 10 μM in series [12] and in series [14] were 0.022 and 0.059, respectively. In addition, the inhibition at 0.01 µM in series [1] was determined as 82%; in series [2], 100%; in series [4], 100%; in series [5], 48%; in [6] it was 88%; in series [7], 100%. The inhibition at 0.01 µM in series [8] amounted to 100%; in [9] it was 76%; in series [10] it was 68%. For the same compound, the inhibition at 0.1 µM in series [1] turned out to be 81%; in [2], 100%; in series [4] it was 100%; in [5], 100%; in [6] it was 100%; in series [7], 100%. Besides, the inhibition at 0.1 µM in series [8] was found to be 100%; in series [9], 70%; in series [10], 100%. In series [3], this compound gave a 50% inhibitory concentration (IC50) above 25 µM. The “% remaining after incubation for 60 min, Rat microsomes” value in series [13] is given as 99.4%.

For `COc1ccc(-c2c(C)nn3c(NCc4ccncc4)cc(C)nc23)cc1OC` [X, 3-(3,4-dimethoxyphenyl)-2,5-dimethyl-N-(pyridin-4-ylmethyl)pyrazolo[1,5-a]pyrimidin-7-amine, reference compound], the inhibition at 0.01 µM was determined as 82% in series [1]; 100% in series [2]; 100% in series [4]; 100% in series [5]; 100% in [6]; 100% in series [7]. Further, the inhibition at 0.01 µM was found to be 100% in [8], 86% in series [9] and 100% in [10]. Also, the inhibition at 0.1 µM in series [1] was found to be 82%; in series [2] it was 100%; in [4], 100%; in [5] it was 100%; in series [6], 100%; in series [7], 100%. The inhibition at 0.1 µM worked out at 100% in series [8], 86% in series [9] and 100% in series [10]. This compound came in with an IC50 in [3] of 0.97 µM.

`COc1ccc(-c2c(C)nc3c(NCc4ccnc(F)c4)cc(C)nn23)cc1OC` [compound 2, 3-(3,4-dimethoxyphenyl)-N-((2-fluoropyridin-4-yl)methyl)-2,6-dimethylimidazo[1,2-b]pyridazin-8-amine]: the inhibition at 0.01 µM amounted to 76% in series [1]; 100% in series [2]; 100% in series [4]; 84% in [5]; 100% in series [6]; 100% in series [7]. The inhibition at 0.01 µM in series [8] was found to be 100%; in series [9], 73%; in [10] it was 100%. The inhibition at 0.1 µM was determined as 75% in series [1]; 100% in [2]; 100% in series [4]; 100% in series [5]; 100% in [6]; 100% in series [7]. Also, the inhibition at 0.1 µM in series [8] is 100%; in series [9] it was 68%; in series [10] it was 100%. The compound also registered a half-maximal inhibitory concentration (IC50) in series [3] above 25 µM.
